For 37 compounds, EC50 results are on record in ChEMBL document CHEMBL5725356, “Anti-fibrotic pyridinones” (2017).

Molecules are shown by their SMILES.

A short description of this assay: ET-1 Assay: Fibroblasts (primary human lung and dermal, HFL-1, 3T3 etc) are seeded in 96-well plates at ~15000 cells/well and serum starved for 0-48 hours. After media exchange, compounds serially diluted in DMSO are added to the cells. After a brief incubation of ~30 min, stimulants (TGFb, serum, LPA etc) are added followed by further incubation for 16-48 hours. Media is then harvested and stored frozen in plate format for later endothelin-1 (ET-1) determination by ELISA. Toxicity measurements are made using the ATPlite kit (Perkin-Elmer). ET-1 is quantified using an ELISA kit (R&D Systems). The amount of ET-1 produced in the assay wells are back-calculated using the ELISA standard. The ability of a compound to inhibit ET-1 production is typically analyzed by fitting dose-response curves to a 4-parameter logistic function to obtain an EC50 value. Particulars: HFL1.
`Cc1cc(=O)n(-c2ccc3c(c2)OCO3)cc1-c1cnn(C)c1`: the EC50 was > 200 µM. On to `CCOc1ccc(-n2cc(-c3ccc(F)cc3)c(C)cc2=O)c(C)c1`, for which the EC50 entry was “in the range around 125 µM”. As for `O=c1ccc(-c2cccc(Cl)c2)cn1-c1ccccc1`, the EC50 entry was “in the range around 125 µM”. As for `Cc1nc2c(-c3cn[nH]c3)cn(-c3ccc(OC(F)(F)F)cc3)c(=O)c2s1`, the EC50 is < 50 µM. With `O=c1ccc(-c2cccc(Cl)c2)cn1-c1ccc(Cl)cc1`, the EC50 is < 50 µM. In the case of `Cc1cn(-c2ccccc2)c(=O)c2c1CCCC2`, the EC50 result was “in the range around 125 µM”. Regarding `O=c1ncc(-c2ccc(F)cc2)cn1-c1ccccc1`, the EC50 entry was “in the range around 125 µM”. As for `CCn1ccc2c(=O)n(-c3ccc(OC(F)(F)F)cc3)cc(-c3cnn(C)c3)c21`, the EC50 is < 50 µM. Regarding `O=c1cc2ccccc2cn1-c1ccccc1`, the EC50 entry was “in the range around 125 µM”. In the case of `Cc1ccc(=O)n(-c2ccccc2)n1`, the 50% effective concentration (EC50) was > 200 µM. On to `O=C(Nc1cc(=O)n(-c2ccc(OC(F)(F)F)cc2)cc1-c1ccc(F)cc1)OCc1ccccc1`, for which the EC50 is > 200 µM.

For the compound `O=c1c2c(c(-c3ccc(F)cc3)cn1-c1ccc(OC(F)(F)F)cc1)NCCC2`, the 50% effective concentration (EC50) is > 200 µM. As for `CCOc1ccc(-n2cc(-c3ccc(F)cc3)c(Cl)cc2=O)c(C)c1`, the 50% effective concentration (EC50) is > 200 µM. The entry for `N#Cc1ccc(-n2cc(-c3cn[nH]c3)c3cc[nH]c3c2=O)cc1` is “in the range around 125 µM”; for `CC(=O)Nc1cc(=O)n(-c2ccc(OC(F)(F)F)cc2)cc1-c1ccc(F)cc1` it is > 200 µM. The figure for `Cc1cc(=O)n(-c2ccc3c(c2)OCCO3)cc1-c1ccc(F)cc1` is > 200 µM. For the compound `Cc1cc(=O)n(-c2ccc(OC(F)(F)F)cc2)cc1-c1ccc(Cl)c(F)c1`, the half-maximal effective concentration (EC50) result is “in the range around 125 µM”.

`CN1C(=O)COc2c(-c3cnn(C)c3)cn(-c3ccc(OC(F)(F)F)cc3)c(=O)c21`: the EC50 is > 200 µM. The figure for `O=C(c1ccccc1)n1cc(-c2ccc(=O)n(-c3ccccc3)c2)cn1` is > 200 µM; for `Cn1cc(-c2cn(-c3ccc(OC(F)(F)F)cc3)c(=O)cc2NCc2ccc(F)cc2)cn1` it is < 50 µM; for `C[C@H]1CCC(=O)N(c2ccccc2)C1` it is > 200 µM.

Regarding `O=c1ncc(-c2ccc(F)cc2)cn1-c1ccc(OC(F)(F)F)cc1`, the EC50 is > 200 µM. With `Cc1ccc(=O)n(-c2ccc(OC(F)(F)F)cc2)n1`, the EC50 was < 50 µM. Take `Cc1ccc(=S)n(-c2cccc(F)c2)c1`: the EC50 is > 200 µM.

For the compound `COCCOc1cc(=O)n(-c2ccc(OC(F)(F)F)cc2)cc1-c1ccc(F)cc1`, the EC50 was > 200 µM. As to `Cc1cc(=O)n(-c2ccc(OC(F)(F)F)cc2)cc1-c1ccc2c(c1)OC(F)(F)O2`, the EC50 entry was “in the range around 125 µM”.

As to `Cc1cc(=O)n(-c2ccc(OC(F)(F)F)cc2)cc1C`, the concentration for a half-maximal effect (EC50) was > 200 µM. Regarding `Cc1ccc(=O)n(Cc2ccccc2)c1`, the concentration for a half-maximal effect (EC50) is > 200 µM. Turning to `Cc1cc(=O)n(-c2ccc(C(F)(F)F)cc2)cc1-c1cnn(C)c1`, the EC50 entry was “in the range around 125 µM”.

`O=c1ccc(C(F)(F)F)cn1-c1ccc(NCCN2CCN(CCO)CC2)cc1Cl`: the EC50 result is “in the range around 125 µM”. For the compound `CCOC(=O)n1cc(-c2ccc(=O)n(-c3ccccc3)c2)cn1`, the EC50 is < 50 µM. On to `CCn1cnc2c(=O)n(-c3ccc(OC(F)(F)F)cc3)cc(-c3cnn(C)c3)c21`, for which the EC50 was > 200 µM. As to `CCOc1ccc(CNc2cc(=O)n(-c3ccc(OCC)cc3C)cc2-c2cnn(C)c2)c(C)c1`, the EC50 was < 50 µM. As for `CN1CCN(CCOc2cc(=O)n(-c3ccc(OC(F)(F)F)cc3)cc2-c2cnn(C)c2)CC1`, the EC50 entry was “in the range around 125 µM”. As to `CC(=O)Nc1cccc(-n2cc(C(C)=O)ccc2=O)c1`, the EC50 was > 200 µM. For `Cn1cc(-c2cn(-c3ccc(OC(F)(F)F)cc3)c(=O)cc2N2CCCCC2)cn1`, the 50% effective concentration (EC50) is > 200 µM.

For `O=c1cc(OC2CCS(=O)(=O)CC2)c(-c2ccc(F)cc2)cn1-c1ccc(OC(F)(F)F)cc1`, the EC50 is < 50 µM.

By EC50 is commonly meant the concentration giving half of the maximal effect.
